Source: US12673120B2, “Fluorescently-traceable amino acid derivative and preparation methods and use thereof” (priority 2020, dated 2026)

Legend:
[1] = system: HCT116 (human colon cancer cells); assay: In vitro anti-tumor cell proliferation activity (MTT method), HCT116; format: cell-based; conditions: HCT116; 48 h; Mean ± SD; read-out: IC50 values of in vitro anti-cell proliferation activity
Procedure: (§2) Tested cell lines S180 (mouse ascites tumor cells), LLC (mouse lung cancer cells), A549 (human non-small cell lung cancer cells), HCT116 (human colon cancer cells), U2Os (human osteosarcoma cells), and MCF-7 (human breast cancer cells) each were purchased from Nanjing KeyGen Biotech.
(§3) When preparing a test sample, the test compound was prepared into a sample solution with a concentration of 500 μM (with a final concentration 100 μM) by a PBS buffer containing 0.5% DMSO, which was used for preliminary screening of an anti-cell proliferation experiment in vitro.
(§4) Positive control group: doxorubicin, prepared to a required concentration with PBS buffer containing 0.5% DMSO; negative control group: a PBS buffer containing 0.5% DMSO; blank group: a PBS buffer containing 0.01% DMSO.

[2] = system: MCF-7 (human breast cancer cells); assay: In vitro anti-tumor cell proliferation activity (MTT method), MCF-7; format: cell-based; conditions: MCF-7; 48 h; Mean ± SD; read-out: IC50 values of in vitro anti-cell proliferation activity
Procedure: as §2, §3, §4

[3] = system: S180 (mouse ascites tumor cells); assay: In vitro anti-tumor cell proliferation activity (MTT method), S180; format: cell-based; conditions: S180; 48 h; Mean ± SD; read-out: IC50 values of in vitro anti-cell proliferation activity
Procedure: as §2, §3, §4

mouse S180 sarcoma model = assay: Inhibition of tumor growth in vivo (mouse S180 sarcoma model); design: species or system male ICR mice; conditions: for Average tumor weight: Mean ± SD, n 10
Procedure: The mice used in the experiment were male ICR mice of SPF grade, weighing 20 g±2 g, purchased from Beijing Vital River Laboratory Animal Technology Co., Ltd., and raised in an animal barrier of the Experimental Animal Department of Capital Medical University.
(§1) The specific method included: drugs were administered to tumor-forming mice by group for 7 consecutive days, a length of the tumor was measured every other day to calculate a tumor volume. 24 h after the last administration, the mice were weighed, anesthetized with diethyl ether, and eyeballs were removed to collect blood; the obtained whole blood was centrifuged at 1,000 rpm for 10 min, and a serum was absorbed for later use. The mice were sacrificed by neck dislocation, and the tumor mass and various organs were stripped and weighed (it was ensured that the operation was done as soon as possible and the stripping was complete and clean). The tumor inhibition rate was calculated by formula b, the results were shown in Table 2 and FIG. 2; and by calculating a viscera-weight ratio of each organ, and it was analyzed whether the test compound had obvious physiological effects on the mouse organs.

Water solubility = format: physicochemical; conditions: decides the injection route
[4] = Viscera-weight ratio / toxicity in tumor-bearing mice; format: in vivo, male ICR mice
Procedure: as §1
After a preliminary study on the in vivo anti-tumor growth activity of different amino acid main compounds, ZD-A, ZD-B, ZD-E-1, and ZD-E-1 with an increased side-chain methylene unit (ZD-F-1) were selected; three dosages of 10 μmol/kg, 5 μmol/kg, and 2 μmol/kg were set to evaluate the inhibitory ability of the four compounds on tumor growth in mice. […] Afterwards, the tumor growth trend and the viscera-weight ratio of the two compounds on mice were analyzed to compare the anti-tumor growth ability and toxicity of the two compounds. The results were shown in FIG. 4 and FIG. 5: after one-way analysis of variance, * meant that compared with the Vehicle group, there was a difference, P<0.05; ** represented a significant difference compared with the Vehicle group, P<0.01.

[5] = system: U2Os (human osteosarcoma cells); assay: In vitro anti-tumor cell proliferation activity (MTT method), U2Os; format: cell-based; conditions: U2Os; 48 h; Mean ± SD; read-out: IC50 values of in vitro anti-cell proliferation activity
Procedure: as §2, §3, §4

[6] = system: A549 (human non-small cell lung cancer cells); assay: In vitro anti-tumor cell proliferation activity (MTT method), A549; format: cell-based; conditions: A549; 48 h; Mean ± SD; read-out: IC50 values of in vitro anti-cell proliferation activity
Procedure: as §2, §3, §4

[7] = Nanomorphology characterization and stability (TEM, SEM, hydration particle size, Zeta potential); format: physicochemical
Excerpt: The nanomorphology of compounds ZD-B and ZD-E-1 were studied by TEM and SEM, and hydration particle size and Zeta potential of the two compounds in a solution were studied by a nanometer particle size analyzer. The results were shown in FIG. 1A-H. In FIG. 1A-H, FIG. 1A was a TEM image of the compound ZD-B; FIG. 1B was a TEM image of the compound ZD-E-1; FIG. 1C was a SEM image of the compound ZD-B; FIG. 1D was a SEM image of the compound ZD-E-1; FIG. 1E was a hydration particle size change curve of the compound ZD-B in solutions at different pH values within 72 h (0.5 h, 24 h, 48 h, and 72 h); FIG. 1F was a hydration particle size change curve of the compound ZD-E-1 in solutions at different pH solutions within 72 h; FIG. 1G was a Zeta potential change curve of the compound ZD-B in solutions at different pH values within 72 h; and FIG. 1H was a Zeta potential change curve of the compound ZD-E-1 in solutions at different pH values within 72 h.

[8] = system: LLC (mouse lung cancer cells); assay: In vitro anti-tumor cell proliferation activity (MTT method), LLC; format: cell-based; conditions: LLC; 48 h; Mean ± SD; read-out: IC50 values of in vitro anti-cell proliferation activity
Procedure: as §2, §3, §4

[9] = Table 2, 10 μmol/kg, ip, 7 consecutive days
[10] = three dosages 10, 5, 2 μmol/kg, iv

Structure (SMILES): N=C(CCl)NCCC[C@H](Nc1ccc([N+](=O)[O-])c2nonc12)C(=O)NCc1ccccc1 [ZD-E-1, (S)—N-benzyl-5-(2-chloroacetimido)-2-((7-nitro-2,1,3-benzoxadiazol-4-yl)amino)pentaneamide]
- IC50 [1]: 22.6 ± 1.45 µM
- IC50 [2]: 40.5 ± 1.91 µM
- IC50 [3]: 24.6 ± 1.72 µM
- Anti-tumor growth activity (in words) (mouse S180 sarcoma model; 10 μmol/kg, ip): most prominent activities
- Average tumor weight compared with Vehicle group (one-way analysis of variance) (mouse S180 sarcoma model; 10 μmol/kg, ip): significantly different from that of Vehicle group
- Tumor growth trend in mice (mouse S180 sarcoma model; FIG. 4, ZD-E-1 versus ZD-F-1): roughly the same
- Tumor Inhibition Rate (mouse S180 sarcoma model; [9]): 40.01%
- Average tumor weight (mouse S180 sarcoma model; [9]): 1.072 ± 0.386 g
- Tumor Inhibition Rate (mouse S180 sarcoma model; Table 3, 2 μmol/kg, iv): 39.23%
- Average tumor weight (mouse S180 sarcoma model; Table 3, 2 μmol/kg, iv): 1.042 ± 0.205 g
- Tumor Inhibition Rate (mouse S180 sarcoma model; Table 3, 5 μmol/kg, iv): 41.65%
- Average tumor weight (mouse S180 sarcoma model; Table 3, 5 μmol/kg, iv): 1.001 ± 0.196 g
- Tumor Inhibition Rate (mouse S180 sarcoma model; Table 3, 10 μmol/kg, iv): 42.73%
- Average tumor weight (mouse S180 sarcoma model; Table 3, 10 μmol/kg, iv): 0.982 ± 0.300 g
- Anti-tumor growth activity (in words) (mouse S180 sarcoma model; [10]): desirable and stable anti-tumor growth activity
- Average tumor weight compared with Vehicle group (one-way analysis of variance) (mouse S180 sarcoma model; [10]): significant differences compared with the Vehicle group
- Average tumor weight compared with the YW3-56 group (mouse S180 sarcoma model; [10]): no difference compared with the YW3-56 group
- Water solubility (Water solubility): had no such concerns
- Effect on liver weight (viscera-weight ratio) compared with Vehicle group ([4]; FIG. 5, ZD-E-1 at high dosages (10 μmol/kg and 5 μmol/kg)): different from those in the Vehicle group
- Effect on brain weight (viscera-weight ratio) compared with Vehicle group ([4]; FIG. 5, ZD-E-1 at three dosages): different from those in the Vehicle group
- Toxic side effects ([4]; mice, compared with ZD-F-1): more obvious toxic side effects, causing liver failure and brain lesions in mice
- IC50 [5]: 28.8 ± 1.14 µM
- IC50 [6]: 45.5 ± 0.672 µM
- Nanomorphology (shape) ([7]; TEM and SEM): shape of a ball
- Hydration particle size change ([7]; pH=2.0, measured continuously for 72 h): particle size hardly changed
- Hydration particle size change ([7]; pH=5.5, measured continuously for 72 h): particle size increased and then decreased
- Hydration particle size ([7]; pH=7.0 versus other pH values, 72 h): smallest particle size at pH=7.0
- Zeta potential change ([7]; solutions at different pH values, measured continuously for 72 h): neither ZD-B nor ZD-E-1 had an obvious change
- IC50 [8]: 26.1 ± 2.58 µM
